Experiment [1] has as its target EGFR^L858R/T790M/C797S (Homo sapiens, UniProt P00533, C797S/L858R/T790M). The experiment in a line: HTRF KinEASE-TK in vitro kinase assay, KINASE LTC. The format is biochemical. From the text:
(§1) The biological activity of compounds described herein were studied according to standard methods known in the art. Methods were used to study inhibition of EGFR, including mutant forms of EGFR comprising L858R, T790M, C797S, and/or Del19 mutations, or any combination thereof (e.g., L858R single, double, or triple mutants). Exemplary, non-limiting methods are described herein.
(§2) Assays using an in vitro kinase assay kit (HTRF KinEASE-TK kit) were used to study the inhibitory activity of compounds described herein with respect to EGFR mutants such as (1) EGFRL858R, (2) EGFR^L858R/T790M, and (3) EGFR^L858R/T790M/C797S.

The target of experiment [2] is EGFR^L858R/T790M (Homo sapiens, UniProt P00533, L858R/T790M). The experiment in a line: HTRF KinEASE-TK in vitro kinase assay, KINASE LT. The format is biochemical.
From the text: as §1, §2

In experiment [3] the target is EGFRL858R (Homo sapiens, UniProt P00533, L858R). The experiment in a line: HTRF KinEASE-TK in vitro kinase assay, KINASE L. Format: biochemical. To be noted: EGFR L858R kinase.
Sequence of EGFRL858R (P00533 25-1210 L858R): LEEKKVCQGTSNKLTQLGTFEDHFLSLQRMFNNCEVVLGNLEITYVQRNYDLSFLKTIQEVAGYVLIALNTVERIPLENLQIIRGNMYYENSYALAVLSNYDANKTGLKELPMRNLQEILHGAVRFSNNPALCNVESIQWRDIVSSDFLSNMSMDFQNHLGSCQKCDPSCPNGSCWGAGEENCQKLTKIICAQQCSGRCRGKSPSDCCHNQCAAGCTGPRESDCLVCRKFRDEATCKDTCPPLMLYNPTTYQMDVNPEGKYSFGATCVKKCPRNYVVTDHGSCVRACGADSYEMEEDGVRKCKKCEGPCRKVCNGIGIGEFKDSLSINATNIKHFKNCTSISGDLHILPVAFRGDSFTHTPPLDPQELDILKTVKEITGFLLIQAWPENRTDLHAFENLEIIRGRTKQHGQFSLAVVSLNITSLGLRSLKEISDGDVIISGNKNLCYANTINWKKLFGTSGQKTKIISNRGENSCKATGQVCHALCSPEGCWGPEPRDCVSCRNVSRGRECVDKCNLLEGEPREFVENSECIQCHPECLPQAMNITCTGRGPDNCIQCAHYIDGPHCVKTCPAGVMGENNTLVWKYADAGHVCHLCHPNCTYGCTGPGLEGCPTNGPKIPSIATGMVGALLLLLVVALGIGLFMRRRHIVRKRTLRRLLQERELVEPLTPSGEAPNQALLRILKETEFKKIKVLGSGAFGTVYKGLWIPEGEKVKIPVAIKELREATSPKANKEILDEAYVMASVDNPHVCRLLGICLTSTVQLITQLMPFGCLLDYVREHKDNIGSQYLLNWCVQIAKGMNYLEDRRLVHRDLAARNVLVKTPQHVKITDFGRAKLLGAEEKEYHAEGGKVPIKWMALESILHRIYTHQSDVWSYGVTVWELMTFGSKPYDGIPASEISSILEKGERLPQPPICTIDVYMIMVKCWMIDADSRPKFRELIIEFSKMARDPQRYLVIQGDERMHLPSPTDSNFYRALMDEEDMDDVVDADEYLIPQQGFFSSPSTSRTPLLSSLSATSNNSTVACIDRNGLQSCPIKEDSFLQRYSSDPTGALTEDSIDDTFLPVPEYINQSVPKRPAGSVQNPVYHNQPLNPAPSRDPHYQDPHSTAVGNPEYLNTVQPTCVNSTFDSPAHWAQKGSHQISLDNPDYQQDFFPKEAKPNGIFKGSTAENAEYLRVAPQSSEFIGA
From the text: as §1, §2
On the technique in general: Time-resolved FRET reads energy transfer from a long-lived donor to a nearby acceptor.

Experiment [4] concerns the target Ba/F3 EGFR-Del19/T790M/C797S (Homo sapiens, UniProt P00533, T790M/C797S, cells depend on it, form not given). The experiment in a line: Ba/F3 viability assay (CellTiter-Glo), BAF3 DTC. Format: cell-based. To be noted: Ba/F3 EGFR-Del19/T790M/C797S cell viability.
From the text: as §1
(§3) Inhibition of cell proliferation was studied using Ba/F3 viability assays, including the Promega CellTiter-Glo cell viability assay. This assay was used to study the effect of compounds described herein in the following assays: (1) Ba/F3 EGFR-Del19/T790M; (2); Ba/F3 EGFR-Del19/C797S; and (3) Ba/F3 EGFR-Del19/T790M/C797S. P-EGFR Signaling Assays
Background: In ATP-based viability assays light output follows the ATP content of the culture.

The target of experiment [5] is Ba/F3 EGFR-Del19/T790M (Homo sapiens, UniProt P00533, T790M, cells depend on it, form not given). As to the kind of experiment: Ba/F3 viability assay (CellTiter-Glo), BAF3 DT. Format: cell-based. To be noted: Ba/F3 EGFR-Del19/T790M cell viability.
Sequence of Ba/F3 EGFR-Del19/T790M (P00533 with tags, fused parts or gaps DEL746-750/T790M, form open): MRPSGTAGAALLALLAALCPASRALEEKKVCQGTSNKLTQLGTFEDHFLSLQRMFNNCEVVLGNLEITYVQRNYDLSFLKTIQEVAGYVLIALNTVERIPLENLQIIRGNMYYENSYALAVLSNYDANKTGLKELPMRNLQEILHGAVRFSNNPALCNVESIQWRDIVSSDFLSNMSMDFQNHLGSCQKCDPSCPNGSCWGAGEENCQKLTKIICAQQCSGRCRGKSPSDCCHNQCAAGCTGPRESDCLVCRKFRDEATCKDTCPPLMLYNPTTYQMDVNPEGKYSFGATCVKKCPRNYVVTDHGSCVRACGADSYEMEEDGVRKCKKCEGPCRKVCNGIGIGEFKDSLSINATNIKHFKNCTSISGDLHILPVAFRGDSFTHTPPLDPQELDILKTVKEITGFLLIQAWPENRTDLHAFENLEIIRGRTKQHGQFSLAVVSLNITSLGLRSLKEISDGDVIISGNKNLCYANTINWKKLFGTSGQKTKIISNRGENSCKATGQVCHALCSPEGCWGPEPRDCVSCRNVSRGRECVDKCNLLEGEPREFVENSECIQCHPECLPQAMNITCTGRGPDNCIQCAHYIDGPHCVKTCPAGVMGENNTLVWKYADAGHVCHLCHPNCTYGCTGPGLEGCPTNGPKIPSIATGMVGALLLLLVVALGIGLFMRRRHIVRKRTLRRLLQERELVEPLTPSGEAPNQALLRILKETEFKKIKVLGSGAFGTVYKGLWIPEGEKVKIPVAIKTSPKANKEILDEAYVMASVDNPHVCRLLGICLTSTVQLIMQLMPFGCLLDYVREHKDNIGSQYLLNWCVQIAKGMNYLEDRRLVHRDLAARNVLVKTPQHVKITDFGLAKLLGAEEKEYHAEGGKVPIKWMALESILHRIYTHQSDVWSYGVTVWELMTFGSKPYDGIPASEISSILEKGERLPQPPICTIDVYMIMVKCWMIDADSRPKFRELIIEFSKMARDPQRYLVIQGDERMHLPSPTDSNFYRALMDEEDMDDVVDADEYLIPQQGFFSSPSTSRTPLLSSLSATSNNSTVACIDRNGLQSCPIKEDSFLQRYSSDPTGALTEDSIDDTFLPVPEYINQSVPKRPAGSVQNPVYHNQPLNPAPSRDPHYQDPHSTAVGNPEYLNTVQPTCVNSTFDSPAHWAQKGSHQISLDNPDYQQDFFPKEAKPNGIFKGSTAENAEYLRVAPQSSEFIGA
From the text: as §1, §3

Experiment [6] addresses Ba/F3 EGFR-Del19/C797S (Homo sapiens, UniProt P00533, C797S, cells depend on it, form not given). As to the kind of experiment: Ba/F3 viability assay (CellTiter-Glo), BAF3 DC. Format: cell-based. To be noted: Ba/F3 EGFR-Del19/C797S cell viability.
From the text: as §1, §3

Sequence of Ba/F3 EGFR-Del19/T790M/C797S (P00533 with tags, fused parts or gaps DEL746-750/T790M/C797S, form open): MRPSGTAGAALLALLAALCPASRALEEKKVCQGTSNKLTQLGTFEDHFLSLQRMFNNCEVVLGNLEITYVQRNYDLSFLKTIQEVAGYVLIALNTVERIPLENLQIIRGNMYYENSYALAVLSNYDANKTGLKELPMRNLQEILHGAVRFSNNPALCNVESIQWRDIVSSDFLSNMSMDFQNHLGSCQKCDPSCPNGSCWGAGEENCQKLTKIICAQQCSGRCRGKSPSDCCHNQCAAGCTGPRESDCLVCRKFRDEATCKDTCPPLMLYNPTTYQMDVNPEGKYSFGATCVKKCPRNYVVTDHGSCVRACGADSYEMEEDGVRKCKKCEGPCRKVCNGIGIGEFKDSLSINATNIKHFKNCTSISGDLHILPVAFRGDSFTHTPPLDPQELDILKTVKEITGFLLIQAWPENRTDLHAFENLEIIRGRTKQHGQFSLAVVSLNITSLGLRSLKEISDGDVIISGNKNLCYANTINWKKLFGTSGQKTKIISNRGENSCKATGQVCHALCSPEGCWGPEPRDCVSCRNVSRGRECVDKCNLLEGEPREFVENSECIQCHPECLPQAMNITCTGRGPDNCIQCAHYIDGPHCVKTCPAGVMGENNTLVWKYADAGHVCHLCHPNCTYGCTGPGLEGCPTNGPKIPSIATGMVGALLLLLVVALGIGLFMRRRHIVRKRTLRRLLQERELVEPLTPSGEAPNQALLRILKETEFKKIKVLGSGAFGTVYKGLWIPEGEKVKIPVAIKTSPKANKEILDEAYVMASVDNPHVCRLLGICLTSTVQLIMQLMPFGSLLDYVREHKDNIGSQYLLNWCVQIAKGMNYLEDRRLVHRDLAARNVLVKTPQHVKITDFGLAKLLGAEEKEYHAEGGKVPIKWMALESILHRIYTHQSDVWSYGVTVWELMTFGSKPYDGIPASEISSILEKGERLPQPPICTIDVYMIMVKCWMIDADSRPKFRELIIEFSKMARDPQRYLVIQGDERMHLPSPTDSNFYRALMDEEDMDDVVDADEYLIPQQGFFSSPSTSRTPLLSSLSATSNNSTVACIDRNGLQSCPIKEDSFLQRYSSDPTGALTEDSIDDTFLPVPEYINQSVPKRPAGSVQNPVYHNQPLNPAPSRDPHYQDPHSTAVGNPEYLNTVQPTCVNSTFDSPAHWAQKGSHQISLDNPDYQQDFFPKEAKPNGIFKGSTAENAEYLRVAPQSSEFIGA
Sequence of EGFR^L858R/T790M/C797S (P00533 25-1210 T790M/C797S/L858R): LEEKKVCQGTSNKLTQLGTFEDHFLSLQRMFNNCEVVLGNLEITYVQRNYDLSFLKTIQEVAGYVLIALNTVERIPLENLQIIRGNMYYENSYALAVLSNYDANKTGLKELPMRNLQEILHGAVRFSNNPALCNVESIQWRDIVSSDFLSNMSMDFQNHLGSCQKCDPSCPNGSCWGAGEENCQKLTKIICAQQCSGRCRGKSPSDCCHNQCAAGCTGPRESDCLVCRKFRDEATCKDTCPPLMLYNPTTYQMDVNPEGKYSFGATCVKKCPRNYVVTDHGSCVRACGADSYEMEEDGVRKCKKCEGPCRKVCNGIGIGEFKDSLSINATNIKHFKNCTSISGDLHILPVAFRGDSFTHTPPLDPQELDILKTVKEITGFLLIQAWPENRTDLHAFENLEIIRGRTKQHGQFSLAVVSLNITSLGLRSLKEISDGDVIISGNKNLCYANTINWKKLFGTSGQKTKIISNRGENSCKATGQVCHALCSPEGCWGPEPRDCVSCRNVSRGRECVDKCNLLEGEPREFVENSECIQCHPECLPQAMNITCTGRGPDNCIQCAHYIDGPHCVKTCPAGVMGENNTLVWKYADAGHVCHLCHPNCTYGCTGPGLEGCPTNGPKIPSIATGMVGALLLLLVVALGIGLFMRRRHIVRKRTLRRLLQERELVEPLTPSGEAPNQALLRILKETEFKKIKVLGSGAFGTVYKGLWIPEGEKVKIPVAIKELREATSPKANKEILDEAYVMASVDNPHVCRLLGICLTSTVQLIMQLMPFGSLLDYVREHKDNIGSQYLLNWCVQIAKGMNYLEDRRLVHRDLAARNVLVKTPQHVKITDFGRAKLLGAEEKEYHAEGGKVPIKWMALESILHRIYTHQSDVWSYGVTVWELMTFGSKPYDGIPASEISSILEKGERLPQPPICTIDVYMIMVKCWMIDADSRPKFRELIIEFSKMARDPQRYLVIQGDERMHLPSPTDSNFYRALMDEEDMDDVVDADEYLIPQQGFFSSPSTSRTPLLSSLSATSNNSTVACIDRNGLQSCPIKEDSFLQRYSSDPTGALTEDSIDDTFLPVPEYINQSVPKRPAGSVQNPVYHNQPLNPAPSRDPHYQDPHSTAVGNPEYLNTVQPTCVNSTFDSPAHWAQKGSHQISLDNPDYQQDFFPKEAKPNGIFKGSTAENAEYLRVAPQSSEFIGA

A word on the IC50: it is the concentration at which inhibition is half-maximal. As a reminder, the GI50 is the concentration giving 50% growth inhibition. Regarding `Cc1cc2cc(n1)-c1cnn(C)c1CCC[C@@H](C)CN1/C(=N/C2=O)Nc2c(C)cc(N3CCN(C)CC3)cc21` [(2)], the half-inhibitory concentration (IC50) in experiment [1], in experiment [2] and in experiment [3] was below 0.05 µM each time. For the same compound, the 50% growth inhibitory concentration (GI50) in experiment [4] is below 0.05 µM; in experiment [5], below 0.05 µM; in experiment [6] it was 0.05 to 0.1 µM.

Regarding `COc1cc(N2CCN(C)CC2)cc2c1N/C1=N\C(=O)c3cc(C)nc(c3)-c3cnn(C)c3CCC[C@@H](C)CN12` [(3)], the concentration for half-maximal inhibition (IC50) in experiment [1], in experiment [2] and in experiment [3] was below 0.05 µM in each case. Besides, the GI50 in experiment [4] is below 0.05 µM; in experiment [5], 0.05 to 0.1 µM; in experiment [6], 0.1 to 1 µM.

In the case of `Cc1cc2cc(n1)-c1cnn(C)c1CCC[C@@H](C)CN1/C(=N/C2=O)Nc2ccc(N3CCC(N4CC[C@H](N(C)C)C4)CC3)cc21` [(4)], the concentration for half-maximal inhibition (IC50) in experiment [1], in experiment [2] and in experiment [3] was below 0.05 µM each time. The concentration for 50% growth inhibition (GI50) in experiment [4], in experiment [5] and in experiment [6] was below 0.05 µM in each case.

With `COc1ccncc1-c1ccc2c(c1)N1C[C@H](C)CCCc3c(cnn3C)-c3cc(cc(C)n3)C(=O)/N=C/1N2` [(9)], the IC50 in experiment [1], in experiment [2] and in experiment [3] was below 0.05 µM throughout. Also, the concentration for 50% growth inhibition (GI50) in experiment [4], in experiment [5] and in experiment [6] was below 0.05 µM each time.

With `Cc1cc2cc(n1)-c1cnn(C)c1CCC[C@@H](C)CN1/C(=N/C2=O)Nc2ccc(N3C[C@@H](C)N(C)[C@@H](C)C3)cc21` [(11)], the IC50 in experiment [1], in experiment [2] and in experiment [3] was below 0.05 µM in each case. In addition, the GI50 in experiment [4], in experiment [5] and in experiment [6] was below 0.05 µM throughout.

On to `Cc1cc2cc(n1)-c1cnn(C)c1CCC[C@@H](C)CN1/C(=N/C2=O)Nc2ccc(OC3CCNCC3)cc21` [(15)], for which the 50% inhibitory concentration (IC50) in experiment [1], in experiment [2] and in experiment [3] was below 0.05 µM throughout. The 50% growth inhibitory concentration (GI50) in experiment [4], in experiment [5] and in experiment [6] was below 0.05 µM throughout.

Take `Cc1cc2cc(n1)-c1cnn(C)c1CCC[C@@H](C)CN1/C(=N/C2=O)Nc2ccc(N(CCN(C)C)CC3COC3)cc21` [(18)]: the 50% inhibitory concentration (IC50) in experiment [1], in experiment [2] and in experiment [3] was below 0.05 µM throughout. Besides, the results for the GI50 in experiment [4], in experiment [5] and in experiment [6] were below 0.05 µM, 0.05 to 0.1 µM and 0.1 to 1 µM, respectively.

Consider `Cc1cc2cc(n1)-c1cnn(C)c1CCC[C@@H](C)CN1/C(=N/C2=O)Nc2ccc(N3CCC(N4CCOCC4)CC3)cc21` [(24)], for which the IC50 in experiment [1], in experiment [2] and in experiment [3] was below 0.05 µM throughout. The GI50 in experiment [4], in experiment [5] and in experiment [6] was below 0.05 µM each time.

With `Cc1cc2cc(n1)-c1cnn(C)c1CCC[C@@H](C)CN1/C(=N/C2=O)Nc2ccc(CN3CCN(CCF)CC3)cc21` [(25)], the IC50 in experiment [1], in experiment [2] and in experiment [3] was below 0.05 µM in each case. For the same compound, the concentration for 50% growth inhibition (GI50) in experiment [4], in experiment [5] and in experiment [6] was below 0.05 µM each time.

With `Cc1cc2cc(n1)-c1cnn(C)c1CCC[C@@H](C)CN1/C(=N/C2=O)Nc2ccc(N3CCN(C(C)C)CC3)cc21` [(28)], the 50% inhibitory concentration (IC50) in experiment [1], in experiment [2] and in experiment [3] was below 0.05 µM in each case. The concentration for 50% growth inhibition (GI50) in experiment [4], in experiment [5] and in experiment [6] was below 0.05 µM each time.

With `Cc1cc2cc(n1)-c1cnn(C)c1CCC[C@@H](C)CN1/C(=N/C2=O)Nc2ccc(CN3CCN(C)CC3)cc21` [(35)], the concentration for half-maximal inhibition (IC50) in experiment [1], in experiment [2] and in experiment [3] was below 0.05 µM throughout. For the same compound, the GI50 in experiment [4], in experiment [5] and in experiment [6] was below 0.05 µM each time.

As to `Cc1cc2cc(n1)-c1cnn(C)c1CCCCCCN1/C(=N/C2=O)Nc2ccc(N(C)CCN(C)C)cc21` [(40)], the IC50 in experiment [1], in experiment [2] and in experiment [3] was below 0.05 µM throughout. In addition, the values for the concentration for 50% growth inhibition (GI50) in experiment [4], in experiment [5] and in experiment [6] were below 0.05 µM, below 0.05 µM and 0.1 to 1 µM, respectively.

For the compound `Cc1cc2cc(n1)-c1cnn(C)c1CCCCCN1/C(=N/C2=O)Nc2ccc(CN3CCNCC3)cc21` [(46)], the IC50 in experiment [1], in experiment [2] and in experiment [3] was below 0.05 µM each time. The GI50 in experiment [4], in experiment [5] and in experiment [6] was below 0.05 µM throughout.

For the compound `Cc1cc2cc(n1)-c1cnn(C)c1-c1cccc(c1)C(C)CN1/C(=N/C2=O)Nc2ccc(C(=O)N3CCN(C)CC3)cc21` (stereo not drawn) [(57)], the half-inhibitory concentration (IC50) is below 0.05 µM in experiment [1], below 0.05 µM in experiment [2] and 0.1 to 1 µM in experiment [3]. For the same compound, the GI50 is 0.1 to 1 µM in experiment [4], at least 1 µM in experiment [5] and 0.1 to 1 µM in experiment [6].

In the case of `Cc1cc2cc(n1)-c1cnn(C)c1-c1cccc(c1)CN1/C(=N/C2=O)Nc2ccc(CN3CCN(C)CC3)cc21` [(61)], the results for the IC50 in experiment [1], in experiment [2] and in experiment [3] were below 0.05 µM, below 0.05 µM and 0.1 to 1 µM, respectively. In addition, the GI50 in experiment [4], in experiment [5] and in experiment [6] was 0.1 to 1 µM each time.

As for `Cc1cc2cc(n1)-c1cnn(C)c1CCCCCCN1/C(=N/C2=O)Nc2ccc(CN3CCOCC3)cc21` [(62)], the concentration for half-maximal inhibition (IC50) in experiment [1] is 0.1 to 1 µM; in experiment [2], 0.1 to 1 µM; in experiment [3], below 0.05 µM. Further, the GI50 was 0.1 to 1 µM in experiment [4], at least 1 µM in experiment [5] and 0.05 to 0.1 µM in experiment [6].

Take `Cc1cc2cc(n1)-c1cnn(C)c1CCCCCCN1/C(=N/C2=O)Nc2ccc(CN3CCN(C)CC3)cc21` [(64)]: the concentration for half-maximal inhibition (IC50) in experiment [1], in experiment [2] and in experiment [3] was below 0.05 µM in each case. Also, the 50% growth inhibitory concentration (GI50) in experiment [4] is below 0.05 µM; in experiment [5], below 0.05 µM; in experiment [6] it was 0.05 to 0.1 µM.

With `Cc1cc2cc(n1)-c1cnn(C)c1CCCCCN1/C(=N/C2=O)Nc2ccc(CN3CCN(C)CC3)cc21` [(69)], the 50% inhibitory concentration (IC50) in experiment [1], in experiment [2] and in experiment [3] was below 0.05 µM throughout. The 50% growth inhibitory concentration (GI50) in experiment [4], in experiment [5] and in experiment [6] was below 0.05 µM throughout.

As to `Cc1ccc(-c2ccc3c(c2)N2C[C@H](C)CCCc4c(cnn4C)-c4cc(cc(C)n4)C(=O)/N=C/2N3)cn1` [Compound (10), (10R,20E)-5,10,25-trimethyl-15-(6-methyl-3-pyridyl)-4,5,12,19,21,26-hexazapentacyclo[21.3.1.02,6.012,20.013,18]heptacosa-1(27),2(6),3,13(18),14,16,20,23,25-nonaen-22-one], the 50% inhibitory concentration (IC50) in experiment [1], in experiment [2] and in experiment [3] was below 0.05 µM in each case. For the same compound, the 50% growth inhibitory concentration (GI50) in experiment [4], in experiment [5] and in experiment [6] was below 0.05 µM each time.
